{"source": "patent US6518314B1", "about": "“Pharmaceutical agents that impede the initiation and progression of primary and secondary DMS disruptions” (Nymox Corporation, priority 1997, dated 2003)", "system": "human DMS", "assay": "In vivo assay: intracerebral injection of human DMS plus compound into rats, histology of DMS disruption site", "conditions": "for Mean Volume Disrupted DMS: mean tissue volume of transformed redistributed disrupted DMS protein per individual DMS, rats, about 100,000 human DMS and compound at 10^−5M; for Persistence of Inflamm. Reaction: ratio of number of acute inflammatory cells (excluding macrophages) per DMS at the DMS disruption site; for Persistence of Inflamm. Reaction / Digestion and removal of DMS: compared to control (ii) normalized to 1.0, compound at 10^−5M; for Digestion and removal of DMS: ratio of number of macrophages containing DMS material per DMS at the DMS disruption site"}
{"compound": "Cn1cnc2c1c(=O)n(CCOC(c1ccccc1)c1ccccc1)c(=O)n2C", "note": "[Compound 13]", "values": [{"measurement": "Mean Volume Disrupted DMS", "result": 1625, "unit": "μ^3"}, {"measurement": "Persistence of Inflamm. Reaction", "result": "<0.01"}, {"measurement": "Digestion and removal of DMS", "result": ">10"}]}
{"compound": "CN(C)C(=O)Oc1cccc([N+](C)(C)C)c1", "note": "[Neostigmine]", "values": [{"measurement": "Mean Volume Disrupted DMS", "result": "1.4 × 10^5 μ^3"}, {"measurement": "Persistence of Inflamm. Reaction", "result": 1.1}, {"measurement": "Digestion and removal of DMS", "result": 1.0}]}
{"compound": "CCCN1C[C@H](CSC)C[C@@H]2c3cccc4[nH]cc(c34)C[C@H]21", "note": "[Pergolide]", "values": [{"measurement": "Mean Volume Disrupted DMS", "result": "1.2 × 10^5 μ^3"}, {"measurement": "Persistence of Inflamm. Reaction", "result": 1.1}, {"measurement": "Digestion and removal of DMS", "result": 1.0}]}
{"compound": "O=C1Nc2ccc(Cl)cc2C(c2ccccc2Cl)=NC1O", "note": "(stereo not drawn) [Lorazepam]", "values": [{"measurement": "Mean Volume Disrupted DMS", "result": "8.2 × 10^4 μ^3"}, {"measurement": "Persistence of Inflamm. Reaction", "result": 1.1}, {"measurement": "Digestion and removal of DMS", "result": 1.0}]}
{"compound": "Nc1c2c(nc3ccccc13)CCCC2", "note": "[Tacrine]", "values": [{"measurement": "Mean Volume Disrupted DMS", "result": "1.4 × 10^5 μ^3"}, {"measurement": "Persistence of Inflamm. Reaction", "result": 1.1}, {"measurement": "Digestion and removal of DMS", "result": 1.0}]}
{"compound": "O=C1Nc2ccc(Cl)cc2C(c2ccccc2)=NC1O", "note": "(stereo not drawn) [Oxazepam]", "values": [{"measurement": "Mean Volume Disrupted DMS", "result": "6.8 × 10^4 μ^3"}, {"measurement": "Persistence of Inflamm. Reaction", "result": 1.1}, {"measurement": "Digestion and removal of DMS", "result": 1.0}]}
{"compound": "COC(=O)C1=C(C)N(CCOC(c2ccccc2)c2ccccc2)C(C)=C(C(=O)OC)C1c1ccccc1", "note": "[Compound 11]", "values": [{"measurement": "Mean Volume Disrupted DMS", "result": 1260, "unit": "μ^3"}, {"measurement": "Persistence of Inflamm. Reaction", "result": "<0.01"}, {"measurement": "Digestion and removal of DMS", "result": ">10"}]}
{"compound": "C#CCN(C)[C@H](C)Cc1ccccc1", "note": "[Selegiline]", "values": [{"measurement": "Mean Volume Disrupted DMS", "result": "1.3 × 10^5 μ^3"}, {"measurement": "Persistence of Inflamm. Reaction", "result": 1.0}, {"measurement": "Digestion and removal of DMS", "result": 1.0}]}
{"compound": "CC(COc1ccc(/C(=C/c2ccccc2)c2ccccc2)cc1)N1CCN(C(c2ccccc2)c2ccccc2)CC1", "note": "(stereo not drawn) [Compound 12]", "values": [{"measurement": "Mean Volume Disrupted DMS", "result": 740, "unit": "μ^3"}, {"measurement": "Persistence of Inflamm. Reaction", "result": "<0.01"}, {"measurement": "Digestion and removal of DMS", "result": ">10"}]}
{"compound": "CC[C@@H]1C(=O)OC[C@@H]1Cc1cncn1C", "note": "[Pilocarpine]", "values": [{"measurement": "Mean Volume Disrupted DMS", "result": "1.7 × 10^5 μ^3"}, {"measurement": "Persistence of Inflamm. Reaction", "result": 1.1}, {"measurement": "Digestion and removal of DMS", "result": 1.0}]}
{"compound": "Cc1ccccc1C(OCCOC(c1ccccc1)c1ccccc1C)c1ccccc1", "note": "(stereo not drawn) [Compound 6, 1,2-Bis(2-methylphenylphenylmethoxy)ethane]", "values": [{"measurement": "Mean Volume Disrupted DMS", "result": 940, "unit": "μ^3"}, {"measurement": "Persistence of Inflamm. Reaction", "result": "<0.01"}, {"measurement": "Digestion and removal of DMS", "result": ">10"}]}
{"compound": "CN1C(=O)CN=C(c2ccccc2)c2cc(Cl)ccc21", "note": "[Diazepam]", "values": [{"measurement": "Mean Volume Disrupted DMS", "result": "6.5 × 10^4 μ^3"}, {"measurement": "Persistence of Inflamm. Reaction", "result": 1.1}, {"measurement": "Digestion and removal of DMS", "result": 1.0}]}
{"compound": "CN(C)CCCN1c2ccccc2CCc2ccccc21", "note": "[Imipramine]", "values": [{"measurement": "Mean Volume Disrupted DMS", "result": "1.38 × 10^5 μ^3"}, {"measurement": "Persistence of Inflamm. Reaction", "result": 1.0}, {"measurement": "Digestion and removal of DMS", "result": 1.0}]}
{"compound": "Clc1ccc(C(OCCOC(c2ccccc2)c2ccc(Cl)cc2)c2ccccc2)cc1", "note": "(stereo not drawn) [Compound 4, 1,2-Bis(4chlorophenylphenylmethoxy)ethane]", "values": [{"measurement": "Mean Volume Disrupted DMS", "result": 580, "unit": "μ^3"}, {"measurement": "Persistence of Inflamm. Reaction", "result": "<0.01"}, {"measurement": "Digestion and removal of DMS", "result": ">10"}]}
{"compound": "CN(C)C(=O)Oc1ccc[n+](C)c1", "note": "[Pyridostigmine bromide]", "values": [{"measurement": "Persistence of Inflamm. Reaction", "result": 1.1}, {"measurement": "Digestion and removal of DMS", "result": 1.0}]}
{"compound": "COC(=O)C(c1ccccc1)C1CCCCN1", "note": "(stereo not drawn) [Methylphenidate]", "values": [{"measurement": "Mean Volume Disrupted DMS", "result": "5.8 × 10^4 μ^3"}, {"measurement": "Persistence of Inflamm. Reaction", "result": 1.1}, {"measurement": "Digestion and removal of DMS", "result": 1.01}]}
{"compound": "CNC(=O)Oc1ccc2c(c1)[C@]1(C)CCN(C)[C@@H]1N2C", "note": "[Physostigmine]", "values": [{"measurement": "Mean Volume Disrupted DMS", "result": "1.1 × 10^5 μ^3"}, {"measurement": "Persistence of Inflamm. Reaction", "result": 1.0}, {"measurement": "Digestion and removal of DMS", "result": 1.0}]}
{"compound": "CC(C)C[C@H]1C(=O)N2CCC[C@H]2[C@]2(O)O[C@](NC(=O)[C@@H]3C=C4c5cccc6[nH]c(Br)c(c56)C[C@H]4N(C)C3)(C(C)C)C(=O)N12", "note": "[Bromocriptine]", "values": [{"measurement": "Mean Volume Disrupted DMS", "result": "1.04 × 10^5 μ^3"}, {"measurement": "Persistence of Inflamm. Reaction", "result": 1.0}, {"measurement": "Digestion and removal of DMS", "result": 1.0}]}
{"compound": "CC(Cc1ccccc1)N1CCN(C(c2ccccc2)c2ccccc2)CC1", "note": "(racemic) [Compound 1, (±)-1-(1-Phenylisopropyl)-4-(diphenylmethyl)piperazine]", "values": [{"measurement": "Mean Volume Disrupted DMS", "result": 1250, "unit": "μ^3"}, {"measurement": "Persistence of Inflamm. Reaction", "result": "<0.01"}, {"measurement": "Digestion and removal of DMS", "result": ">10"}]}
{"compound": "CN(CCC=C1c2ccccc2CCc2ccccc21)CCOC(c1ccccc1)c1ccccc1", "note": "[Compound 9, 3-(10,11-Dihydro-5H-dibenzo[a,d]cyclohepten-5-ylidene-N-methyl-N-[2-(diphenylmethoxy)ethyl)]-1-propaneamine]", "values": [{"measurement": "Mean Volume Disrupted DMS", "result": 482, "unit": "μ^3"}, {"measurement": "Persistence of Inflamm. Reaction", "result": "<0.01"}, {"measurement": "Digestion and removal of DMS", "result": ">10"}]}
{"compound": "CN1C[C@H](C(=O)N[C@]2(C)O[C@@]3(O)[C@@H]4CCCN4C(=O)[C@H](Cc4ccccc4)N3C2=O)C=C2c3cccc4[nH]cc(c34)C[C@H]21", "note": "[Ergotamine]", "values": [{"measurement": "Mean Volume Disrupted DMS", "result": "5.8 × 10^4 μ^3"}, {"measurement": "Persistence of Inflamm. Reaction", "result": 1.0}, {"measurement": "Digestion and removal of DMS", "result": 1.0}]}
{"compound": "CC[N+](C)(C)c1cccc(O)c1", "note": "[Edrophonium Chloride]", "values": [{"measurement": "Persistence of Inflamm. Reaction", "result": 1.0}, {"measurement": "Digestion and removal of DMS", "result": 1.0}]}
{"compound": "CCOC(=O)C1(c2ccccc2)CCN(C)CC1", "note": "[Meperidine]", "values": [{"measurement": "Mean Volume Disrupted DMS", "result": "2.1 × 10^5 μ^3"}, {"measurement": "Persistence of Inflamm. Reaction", "result": 1.0}, {"measurement": "Digestion and removal of DMS", "result": 1.0}]}
{"compound": "CN(CCC=C1c2ccccc2CCc2ccccc21)CCOC(c1ccccc1)c1ccc(Cl)cc1", "note": "(stereo not drawn) [Compound 10, 3-(10,11-Dihydro-5H-dibenzo[a,d]cyclohepten-5-ylidene-N-methyl-N-[2-(4-chlorophenylphenylmethoxy)ethyl)]-1-propaneamine]", "values": [{"measurement": "Mean Volume Disrupted DMS", "result": 460, "unit": "μ^3"}, {"measurement": "Persistence of Inflamm. Reaction", "result": "<0.01"}, {"measurement": "Digestion and removal of DMS", "result": ">10"}]}
{"compound": "c1ccc(C(OCCOC(c2ccccc2)c2ccccc2)c2ccccc2)cc1", "note": "[Compound 2, 1,2-Bis(diphenylmethoxy)ethane]", "values": [{"measurement": "Mean Volume Disrupted DMS", "result": 560, "unit": "μ^3"}, {"measurement": "Persistence of Inflamm. Reaction", "result": "<0.01"}, {"measurement": "Digestion and removal of DMS", "result": ">10"}]}
{"compound": "CN1[C@@H]2CC[C@H]1C[C@@H](OC(=O)C(CO)c1ccccc1)C2", "note": "(stereo partly drawn) [Atropine]", "values": [{"measurement": "Persistence of Inflamm. Reaction", "result": 1.0}, {"measurement": "Digestion and removal of DMS", "result": 1.0}]}
{"compound": "Clc1ccc2c(c1)C(N1CCNCC1)=Nc1ccccc1O2", "note": "[Amoxepine]", "values": [{"measurement": "Mean Volume Disrupted DMS", "result": "1.36 × 10^5 μ^3"}, {"measurement": "Persistence of Inflamm. Reaction", "result": 1.1}, {"measurement": "Digestion and removal of DMS", "result": 1.0}]}
{"compound": "FC(F)(F)c1ccc(C(OCCOC(c2ccccc2)c2ccc(C(F)(F)F)cc2)c2ccccc2)cc1", "note": "(stereo not drawn) [Compound 5, 1,2-Bis(4-trifluoromethylphenylphenylmethoxy)ethane]", "values": [{"measurement": "Mean Volume Disrupted DMS", "result": 940, "unit": "μ^3"}, {"measurement": "Persistence of Inflamm. Reaction", "result": "<0.01"}, {"measurement": "Digestion and removal of DMS", "result": ">10"}]}
{"compound": "Cn1cnc2c1c(=O)n(CCOC(c1ccccc1)c1ccc(Cl)cc1)c(=O)n2C", "note": "(stereo not drawn) [Compound 14]", "values": [{"measurement": "Mean Volume Disrupted DMS", "result": 1625, "unit": "μ^3"}, {"measurement": "Persistence of Inflamm. Reaction", "result": "<0.01"}, {"measurement": "Digestion and removal of DMS", "result": ">10"}]}
{"compound": "C[C@@H](CO)NC(=O)[C@@H]1C=C2c3cccc4[nH]cc(c34)C[C@H]2N(C)C1", "note": "[Ergonovine]", "values": [{"measurement": "Mean Volume Disrupted DMS", "result": "5.2 × 10^4 μ^3"}, {"measurement": "Persistence of Inflamm. Reaction", "result": 1.0}, {"measurement": "Digestion and removal of DMS", "result": 1.0}]}
